Experiment: In vivo biodistribution of ^225Ac complexes after intravenous injection
Set-up: species or system C57BL/6 mice
Protocol: In Vivo Biodistribution of ^225Ac Complexes of Macropa and DOTA. All experiments were approved by the Institutional Animal Care Committee (IACC) of the University of British Columbia and were performed in accordance with the Canadian Council on Animal Care Guidelines. A total of 9 female C57BL/6 mice (6-8 weeks old, 20-25 g) were used for the biodistribution study of each radiometal complex, n=3 for each time point.
Macropa (100 μL of a 1 mg/mL solution in NH4OAc) was diluted with 387 μL of NH4OAc (1 M, pH 7), and an aliquot (203 μL) of ^225Ac(NO3)3 (˜157 kBq) was then added; the pH of this solution was adjusted to 6.5-7 by the addition of 1 M NaOH (210 μL, trace metal grade). After 5 min at ambient temperature, the reaction solution was analyzed by TLC (0.4 M pH 4 sodium citrate as the eluent), which confirmed >95% radiochemical yield. The reaction was allowed to proceed overnight, and the radiochemical yield was again confirmed to be >95% the following morning. At this time, mice were anesthetized by 2% isoflurane, and approximately 100 μL (10-15 kBq) of the [^225Ac(macropa)]^+ complex were injected into the tail vein of each mouse. After injection, mice were allowed to recover and roam freely in their cages, and were euthanized by CO2 inhalation at 15 min, 1 h, or 5 h (n=3 at each time point) post-injection. Blood was collected by cardiac puncture and placed into an appropriate test tube for scintillation counting. Tissues collected included heart, liver, kidneys, lungs, small intestine, large intestine, brain, bladder, spleen, stomach, pancreas, bone, thyroid, tail, urine, and feces. Tissues were weighed and then counted with a calibrated gamma counter (Packard, Cobra II model 5002) using three energy windows: 60-120 keV (window A), 180-260 keV (window B), and 400-480 keV (window C). Counting was performed both immediately after sacrifice and after 7 days; counts were decay corrected from the time of injection and then converted to the percentage of injected dose (% ID) per gram of tissue (% ID/g). No differences were noted between the data; therefore, the biodistributions are reported using the data acquired immediately using window A.
The biodistribution studies of [^225Ac(DOTA)]^− and ^225Ac(NO3)3 were carried out as described above for [^225Ac(macropa)]^+, with the following modifications. [^225Ac(DOTA)]^− was prepared by adding ^225Ac(NO3)3 (338 μL, 1.1 MBq) to a solution of DOTA (100 μg, 20 mg/mL in H2O) in NH4OAc (467 μL, 0.15 M, pH 7). The pH of the solution was adjusted to 7 using NH4OAc (150 μL, 1 M, pH 7) and the solution was heated at 85° C. for 45 min. RCY>99% was confirmed by TLC as described above. [^225Ac(DOTA)]^− was diluted with saline to a final concentration of 0.05 MBq/100 μL, and 100 μL were injected into each mouse. ^225Ac(NO3)3 (˜58 μL, 0.4 MBq) was diluted and injected in the same manner as [^225Ac(DOTA)]^−. One mouse that was to be euthanized at the 5 h time point in the [^225Ac(DOTA)]^− study died shortly after injection. In the same manner, one mouse that was to be euthanized at the 1 h time point in the ^225Ac(NO3)3 study died.
The in vivo stability [^225Ac(macropa)]^+ was examined by comparing its biodistribution to those of ^225Ac(NO3)3 and [^225Ac(DOTA)]^−. C57BL/6 mice were injected via tail vein with 10-50 kBq of each radiometal complex and were sacrificed after 15 min, 1 h, or 5 h. The amount of ^225Ac retained in each organ was quantified by gamma counting and reported as the percent of injected dose per gram of tissue (% ID/g). The results of these studies are compiled in Tables 1-3. Inadequate stability of an ^225Ac complex leading to the loss of radioisotope in vivo is manifested by the accumulation of ^225Ac in the liver, spleen, and bone of mice.^[11,12,32] […] The biodistribution profile of [^225Ac(macropa)]^+ (FIG. 3B) differs markedly from that of ^225Ac(NO3)3. […]

[1] = 15 min after i.v. injection, energy window A (60-120 keV)
[2] = 15 min after i.v. injection, energy window B (180-260 keV)
[3] = 15 min after i.v. injection, energy window C (400-480 keV)
[4] = 1 h after i.v. injection, energy window A (60-120 keV)

With `O=C([O-])CN1CCN(CC(=O)[O-])CCN(CC(=O)[O-])CCN(CC(=O)[O-])CC1.[225Ac+3]` [[^225Ac(DOTA)]^−] the “% ID/g in bladder” value [1] was 48.2703 % ID/g, the “% ID/g in blood” value [1] was 5.2881 % ID/g and the “% ID/g in bone (femur + joint)” value [1] was 2.6298 % ID/g. The “% ID/g in brain” value [1] was 0.2655 % ID/g, the “% ID/g in feces” value [1] was 6.2730 % ID/g and the “% ID/g in heart” value [1] was 2.3335 % ID/g. For the same compound, the “% ID/g in kidneys” value [1] was 27.6566 % ID/g, the “% ID/g in large intestines” value [1] was 2.3348 % ID/g and the “% ID/g in liver” value [1] was 2.2520 % ID/g. The “% ID/g in lungs” value [1] was 5.7556 % ID/g, the “% ID/g in pancreas” value [1] was 1.5090 % ID/g and the “% ID/g in small intestines” value [1] was 2.6370 % ID/g. The “% ID/g in spleen” value [1] was 2.5905 % ID/g, the “% ID/g in stomach” value [1] was 2.7440 % ID/g and the “% ID/g in tail” value [1] was 8.8606 % ID/g. The “% ID/g in thyroids” value [1] was −5.7725 % ID/g, the “% ID/g in urine” value [1] was 1467.9186 % ID/g and the “% ID/g in bladder” value [2] was 54.4696 % ID/g. The “% ID/g in blood” value [2] was 5.6357 % ID/g, the “% ID/g in bone (femur + joint)” value [2] was 3.0357 % ID/g and the “% ID/g in brain” value [2] was 0.2735 % ID/g. For the same compound, the “% ID/g in feces” value [2] was 1.0222 % ID/g, the “% ID/g in heart” value [2] was 2.7276 % ID/g and the “% ID/g in kidneys” value [2] was 28.0858 % ID/g. For the same compound, the “% ID/g in large intestines” value [2] was 2.5365 % ID/g, the “% ID/g in liver” value [2] was 2.1817 % ID/g and the “% ID/g in lungs” value [2] was 6.0147 % ID/g. The “% ID/g in pancreas” value [2] was 1.4929 % ID/g, the “% ID/g in small intestines” value [2] was 2.5009 % ID/g and the “% ID/g in spleen” value [2] was 2.9076 % ID/g. For the same compound, the “% ID/g in stomach” value [2] was 2.7311 % ID/g, the “% ID/g in tail” value [2] was 9.4746 % ID/g and the “% ID/g in thyroids” value [2] was 1.6601 % ID/g. The “% ID/g in urine” value [2] was 1635.4394 % ID/g, the “% ID/g in bladder” value [3] was 76.0987 % ID/g and the “% ID/g in blood” value [3] was 7.2941 % ID/g. For the same compound, the “% ID/g in bone (femur + joint)” value [3] was 4.4224 % ID/g, the “% ID/g in brain” value [3] was 0.1588 % ID/g and the “% ID/g in feces” value [3] was 1.5693 % ID/g. For the same compound, the “% ID/g in heart” value [3] was 2.5579 % ID/g, the “% ID/g in kidneys” value [3] was 40.4489 % ID/g and the “% ID/g in large intestines” value [3] was 3.8419 % ID/g. For the same compound, the “% ID/g in liver” value [3] was 2.9046 % ID/g, the “% ID/g in lungs” value [3] was 7.3872 % ID/g and the “% ID/g in pancreas” value [3] was 1.0290 % ID/g. The “% ID/g in small intestines” value [3] was 3.8916 % ID/g, the “% ID/g in spleen” value [3] was 1.5598 % ID/g and the “% ID/g in stomach” value [3] was 3.2425 % ID/g. The “% ID/g in tail” value [3] was 13.4731 % ID/g, the “% ID/g in thyroids” value [3] was −109.5394 % ID/g and the “% ID/g in urine” value [3] was 2691.0615 % ID/g. For the same compound, the “% ID/g in bladder” value [4] was 4.7351 % ID/g, the “% ID/g in blood” value [4] was 0.1144 % ID/g and the “% ID/g in bone (femur + joint)” value [4] was 0.4487 % ID/g. For the same compound, the “% ID/g in brain” value [4] was 0.0224 % ID/g, the “% ID/g in feces” value [4] was 0.2035 % ID/g and the “% ID/g in heart” value [4] was 0.1012 % ID/g. For the same compound, the “% ID/g in kidneys” value [4] was 1.4020 % ID/g, the “% ID/g in large intestines” value [4] was 0.1229 % ID/g and the “% ID/g in liver” value [4] was 0.2715 % ID/g. The “% ID/g in lungs” value [4] was 0.1555 % ID/g, the “% ID/g in pancreas” value [4] was 0.0743 % ID/g and the “% ID/g in small intestines” value [4] was 1.7207 % ID/g. For the same compound, the “% ID/g in spleen” value [4] was 0.0938 % ID/g, the “% ID/g in stomach” value [4] was 0.1367 % ID/g and the “% ID/g in tail” value [4] was 0.8091 % ID/g. The “% ID/g in thyroids” value [4] was 2.3564 % ID/g and the “% ID/g in urine” value [4] was 158.6102 % ID/g.

Reference: patent publication US11554182B2, “Macrocyclic complexes of alpha-emitting radionuclides and their use in targeted radiotherapy of cancer” (CORNELL UNIVERSITY, priority 2017, dated 2023)
